Test results from US12616704B2, “Cannabichromene formulation for pain management” (Zyus Life Sciences Inc., priority 2020, dated 2026).

Tests used:
[1] = system: Oxaliplatin-induced cool allodynia; assay: Acetone Cooling Test (ACT) in oxaliplatin-induced polyneuropathy (OIPN) model; assay type: in vivo, C57BL/6J mice; conditions: CBC 20 mg/kg p.o.
Method: Model Induction—Mouse Oxaliplatin-induced polyneuropathy (OIPN) model was induced over a three-week period. The day of first Oxaliplatin (OXP) injection is referred to as day 0 (DO). OXP was administered as six separate intraperitoneal injections at 4.5-mg/kg (10 ml/kg, i.p.) to Groups 2, 3, and 4 on DO, D4, D8, D12, D16, and D20. The cumulative OXP dose was thus 27 mg/kg. The in-life procedures, such as observations, tests, and/or measurements were performed by Charles River Discovery Services with blinded methods. The mice were distributed into 4 groups (n=8 for Vehicle Control; n=10 OXP Control; n=20 CBC; n=15 Duloxetine).
Treatments—Following exposure to OXP for 20 days, Groups 3 and 4 were treated with CBC (20 mg/kg, p.o.) and Duloxetine (25 mg/kg, i.p.), respectively, for 10 consecutive days. In a similar regimen Groups 1 and 2 (Vehicle Control and OXP-Vehicle Control, respectively) received a corresponding volume of 5% glucose solution at an administration volume of 10 mL/kg.
Acetone Cooling Test (ACT) —To produce a measurable cooling sensation, 10-15 μL of acetone was applied onto the medial area of the plantar hind paw with a 0.5 ml insulin syringe. Responses of a mouse to acetone were monitored for 20 s, and a score given based on a four-point scale (0-3 points), according to the response intensity, continuation, and briskness. The higher the score, the greater the cool allodynia sensed by the mouse.
Within one test timepoint, a total of 3 trials were performed per paw with a minimum gap of 5 min between testing. The three individual scores were added up to obtain a single score over a cumulative period of 60 s. Thus, for one test, the minimum score of one paw is 0 (no cool allodynia), while the maximum possible score is 9 (intensive cool allodynia). The total scores for the left and right paws were averaged to accomplish a single result value per mouse at each timepoint.
The Acetone Cooling Test was performed prior to OXP administration (Baseline), following the last OXP injection (D21), one day after the first CBC, Duloxetine, or Vehicle treatment (D22), and after a 10-day daily dosing of CBC, Duloxetine, or Vehicle treatment (D31). Taken together, the ACT was used to assess chemotherapy-induce cool allodynia as stated in the schedule:
On D22: At 60 min after the first Vehicle/CBC dose and 120 min after Dulx dose.
On D31: At 60 min after the last Vehicle/CBC and 120 min after Dulx dose.

[2] = molecular target: CB1 receptors (Homo sapiens, UniProt P21554); conditions: cited from earlier work
Chain of CB1 receptors (P21554 whole entry): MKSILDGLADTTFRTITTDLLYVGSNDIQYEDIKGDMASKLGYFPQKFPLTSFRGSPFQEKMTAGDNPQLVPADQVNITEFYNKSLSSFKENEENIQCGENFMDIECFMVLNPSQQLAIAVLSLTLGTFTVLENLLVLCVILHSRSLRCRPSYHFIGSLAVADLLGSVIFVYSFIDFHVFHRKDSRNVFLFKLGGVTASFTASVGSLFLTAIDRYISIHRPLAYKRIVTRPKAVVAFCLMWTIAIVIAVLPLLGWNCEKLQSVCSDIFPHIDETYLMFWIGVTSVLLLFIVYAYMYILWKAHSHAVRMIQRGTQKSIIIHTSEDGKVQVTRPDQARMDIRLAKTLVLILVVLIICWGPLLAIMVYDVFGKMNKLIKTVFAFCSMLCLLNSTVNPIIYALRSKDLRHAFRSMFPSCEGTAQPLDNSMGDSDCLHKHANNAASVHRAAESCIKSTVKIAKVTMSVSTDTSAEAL

[3] = molecular target: TRPA1 (Transient Receptor potential A1) channels (Homo sapiens, UniProt O75762); conditions: among phytocannabinoids; cited from earlier work
Chain of TRPA1 (Transient Receptor potential A1) channels (O75762 whole entry): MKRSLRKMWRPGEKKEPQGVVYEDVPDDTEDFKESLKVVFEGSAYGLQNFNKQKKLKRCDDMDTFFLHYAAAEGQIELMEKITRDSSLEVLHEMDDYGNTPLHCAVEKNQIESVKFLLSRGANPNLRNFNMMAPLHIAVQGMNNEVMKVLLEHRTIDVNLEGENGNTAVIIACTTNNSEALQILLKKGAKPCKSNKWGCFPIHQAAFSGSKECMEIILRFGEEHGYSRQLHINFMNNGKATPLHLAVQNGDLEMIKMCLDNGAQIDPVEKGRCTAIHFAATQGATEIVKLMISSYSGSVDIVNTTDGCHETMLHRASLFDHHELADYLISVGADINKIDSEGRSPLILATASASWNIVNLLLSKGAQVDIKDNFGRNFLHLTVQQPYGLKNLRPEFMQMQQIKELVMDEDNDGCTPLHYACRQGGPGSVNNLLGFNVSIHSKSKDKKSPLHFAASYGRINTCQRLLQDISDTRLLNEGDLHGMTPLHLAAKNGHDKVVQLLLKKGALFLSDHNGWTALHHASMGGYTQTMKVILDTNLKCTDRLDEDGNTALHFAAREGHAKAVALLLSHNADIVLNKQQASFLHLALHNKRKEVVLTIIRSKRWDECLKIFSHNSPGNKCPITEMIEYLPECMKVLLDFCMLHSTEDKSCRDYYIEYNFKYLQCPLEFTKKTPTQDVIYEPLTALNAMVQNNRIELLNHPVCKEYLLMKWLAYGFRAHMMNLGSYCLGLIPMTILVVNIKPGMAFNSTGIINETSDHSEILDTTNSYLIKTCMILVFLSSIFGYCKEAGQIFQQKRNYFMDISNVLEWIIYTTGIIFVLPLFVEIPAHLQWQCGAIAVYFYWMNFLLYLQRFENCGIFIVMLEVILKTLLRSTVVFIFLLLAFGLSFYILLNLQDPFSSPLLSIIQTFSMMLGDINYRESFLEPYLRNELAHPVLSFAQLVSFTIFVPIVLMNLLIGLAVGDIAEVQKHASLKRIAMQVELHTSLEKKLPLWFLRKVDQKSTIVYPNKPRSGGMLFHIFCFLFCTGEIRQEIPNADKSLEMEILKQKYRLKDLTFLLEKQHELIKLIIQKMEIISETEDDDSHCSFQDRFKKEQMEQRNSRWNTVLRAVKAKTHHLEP

[4] = molecular target: CB2 receptors (Homo sapiens, UniProt P34972); conditions: read-out: affinity (Ki) for CB2 receptors; cited from earlier work
Chain of CB2 receptors (P34972 whole entry): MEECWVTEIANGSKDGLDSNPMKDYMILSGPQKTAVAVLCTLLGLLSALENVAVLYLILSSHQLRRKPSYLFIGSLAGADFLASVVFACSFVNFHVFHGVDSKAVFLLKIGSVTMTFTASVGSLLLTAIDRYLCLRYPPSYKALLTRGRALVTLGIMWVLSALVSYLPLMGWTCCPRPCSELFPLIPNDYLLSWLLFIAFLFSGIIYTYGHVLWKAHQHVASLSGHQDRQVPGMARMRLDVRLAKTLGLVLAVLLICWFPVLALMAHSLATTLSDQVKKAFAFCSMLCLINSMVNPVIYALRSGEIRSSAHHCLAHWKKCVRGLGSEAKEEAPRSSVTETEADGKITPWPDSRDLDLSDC

CCCCCc1cc(O)c2c(c1)OC(C)(CCC=C(C)C)C=C2 (centres unmarked) [CBC, cannabichromene]
ACT score compared with OXP-Vehicle control ([1]; D22, acute single dose, Duloxetine 25 mg/kg i.p.): statistically significant and comparable reduction in cool allodynia
ACT score compared with OXP-Vehicle control ([1]; D31, chronic repeated dosing, Duloxetine 25 mg/kg i.p.): qualitative but not statistically significant reduction
ACT score compared with OXP-Vehicle control: p ([1]; D31, chronic repeated dosing, Mann-Whitney test): 0.06
ACT score, D31 vs. D21 ([1]; within group, 10-day repeated dosing, Duloxetine 25 mg/kg i.p.): significant reversion of cool allodynia
ACT score, reversion of cool allodynia D22 vs. D21 pre-treatment: p ([1]; within group, single dose, Duloxetine 25 mg/kg i.p.): < 0.001
binds to CB1 receptors only at concentrations higher than [2]: higher than 1 micromolar
agonist potency at TRPA1 channels [3]: most potent agonist of all the phytocannabinoids
Ki [4]: ~100 nM
